Experiments:
[1] = target: T1, Recombinant Human CD39/ENTPD1 Protein (Homo sapiens, UniProt P49961); experiment: CD39 activity with varying substrate concentration (phosphate release, Malachite Green), fitted to substrate inhibition model; type: biochemical; details: for Vmax: 0.02 µg/ml enzyme, 5 mM CaCl2, 30 min, room temperature; for kcat: Vmax divided by CD39 concentration; for substrate inhibition at high substrate concentrations: result in words
T1 construct: purchased R&D System (Biotechne) 4397-EN-010
T1 sequence (P49961 38-478 limits assumed): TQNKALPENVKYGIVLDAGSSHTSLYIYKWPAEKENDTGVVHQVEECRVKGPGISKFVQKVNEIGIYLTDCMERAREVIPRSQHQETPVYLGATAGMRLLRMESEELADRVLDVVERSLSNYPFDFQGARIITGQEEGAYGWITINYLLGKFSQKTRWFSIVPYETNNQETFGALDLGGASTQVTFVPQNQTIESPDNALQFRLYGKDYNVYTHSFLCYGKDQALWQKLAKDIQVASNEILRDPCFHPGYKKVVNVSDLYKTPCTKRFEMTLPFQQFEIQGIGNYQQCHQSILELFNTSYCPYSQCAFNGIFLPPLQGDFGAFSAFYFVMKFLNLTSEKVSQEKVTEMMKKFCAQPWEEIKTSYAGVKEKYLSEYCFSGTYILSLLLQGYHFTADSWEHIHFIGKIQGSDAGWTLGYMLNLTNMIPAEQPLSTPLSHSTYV

[2] = target: T1, Recombinant Human CD39/ENTPD1 Protein; set-up: method as in PMID 23425137; details: result in words; cited from earlier work
[3] = target: T1, Recombinant Human CD39/ENTPD1 Protein; experiment: Inhibition of CD39 activity by reaction products (nucleoside monophosphates), Malachite Green phosphate assay; type: biochemical
[4] = compound as substrate, Haldane substrate inhibition model
[5] = substrate inhibition constant, compound as substrate, Haldane substrate inhibition model

Km [1, 4] [µM] | Vmax [1, 4] [nmol/min] | kcat ([1]; compound as substrate) [s⁻¹] | substrate inhibition at high substrate concentrations ([1]; compound as substrate) | Ki [1, 5] [µM] | Ki ([1]; substrate inhibition constant as stated in text) [µM] | IC50 ([3]; 24 μM GTP as substrate) [µM] | IC50 ([3]; 24 μM UTP as substrate) [µM] | SMILES | hydrolysis by CD39 [2]
5.37 | 0.018 | 15.3 |  | 1820 |  |  |  | CSc1nc(N)c2ncn([C@@H]3O[C@H](COP(=O)(O)OP(=O)(O)OP(=O)(O)O)[C@@H](O)[C@H]3O)c2n1 [2-MeS-ATP] | 
5.71 | 0.021 | 17.8 |  | 358 |  |  |  | Nc1ncnc2c1ncn2[C@@H]1O[C@H](COP(=O)(O)OP(=O)(O)O)[C@@H](O)[C@H]1O [ADP] | 
4.01 | 0.020 | 17.0 |  | 818 |  |  |  | Nc1ncnc2c1ncn2[C@@H]1O[C@H](COP(=O)(O)OP(=O)(O)OP(=O)(O)O)[C@@H](O)[C@H]1O [ATP] | 
26.6 | 0.022 | 18.7 |  |  | > 1000 |  |  | Nc1nc2c(ncn2[C@@H]2O[C@H](COP(=O)(O)OP(=O)(O)O)[C@@H](O)[C@H]2O)c(=O)[nH]1 [GDP] | 
 |  |  |  |  |  | ~350 |  | Nc1nc2c(ncn2[C@@H]2O[C@H](COP(=O)(O)O)[C@@H](O)[C@H]2O)c(=O)[nH]1 [GMP] | 
20.6 | 0.021 | 17.8 | Substrate inhibition was seen | 680 |  |  |  | Nc1nc2c(ncn2[C@@H]2O[C@H](COP(=O)(O)OP(=O)(O)OP(=O)(O)O)[C@@H](O)[C@H]2O)c(=O)[nH]1 [GTP] | 
13.3 | 0.025 | 21.2 | almost no substrate inhibition |  |  |  |  | O=c1ccn([C@@H]2O[C@H](COP(=O)(O)OP(=O)(O)O)[C@@H](O)[C@H]2O)c(=O)[nH]1 [UDP] | 

Further lines, the compound ahead of its results:

SMILES | Km [1, 4] [µM] | Vmax [1, 4] [nmol/min] | kcat ([1]; compound as substrate) [s⁻¹] | substrate inhibition at high substrate concentrations ([1]; compound as substrate) | Ki [1, 5] [µM] | Ki ([1]; substrate inhibition constant as stated in text) [µM] | IC50 ([3]; 24 μM GTP as substrate) [µM] | IC50 ([3]; 24 μM UTP as substrate) [µM] | hydrolysis by CD39 [2]
CSc1nc(N)c2ncn([C@@H]3O[C@H](COP(=O)(O)OP(=O)(O)O)[C@@H](O)[C@H]3O)c2n1 [2-MeS-ADP, 2-methylthio-ADP] | 9.36 | 0.021 | 17.8 | no substrate inhibition |  |  |  |  | 
CCCCSc1nc2c(N)ncnc2n1[C@@H]1O[C@H](COP(=O)(O)OP(=O)(O)O)[C@@H](O)[C@H]1O [8-BuS-ADP] |  |  |  |  |  |  |  |  | resistant to hydrolysis by CD39
CCCCSc1nc2c(N)ncnc2n1C1OC(COP(=O)(O)OP(=O)(O)OP(=O)(O)O)C(O)C1O (centres unmarked) [8-butylthio (BuS)-ATP] |  |  |  |  |  |  |  |  | resistant to hydrolysis by CD39
O=c1ccn([C@@H]2O[C@H](COP(=O)(O)O)[C@@H](O)[C@H]2O)c(=O)[nH]1 [UMP] |  |  |  |  |  |  |  | ~165 | 
O=c1ccn([C@@H]2O[C@H](COP(=O)(O)OP(=O)(O)OP(=O)(O)O)[C@@H](O)[C@H]2O)c(=O)[nH]1 [UTP] | 9.38 | 0.024 | 20.4 | weak substrate inhibition | 1960 |  |  |  | 

From publication PMC10238538, “Human soluble CD39 displays substrate inhibition in a substrate-specific manner” (Scientific Reports, 2023)
